The first test concerns the target soluble human BACE1 catalytic domain (Homo sapiens (Human), UniProt P56817). The test can be described thus: BACE1 HTRF FRET Assay. The test is classed as biochemical. To be noted: Ki calculated from IC50 using the Cheng-Prusoff equation. The text has this:
A homogeneous time-resolved FRET assay can be used to determine IC50 values for inhibitors of the soluble human BACE1 catalytic domain. This assay monitors the increase of 620 nm fluorescence that resulted from BACE1 cleavage of an APPswedish APP^swe mutant peptide FRET substrate (QSY7-[…]-Europium-amide). This substrate contains an N-terminal QSY7 moiety that serves as a quencher of the C-terminal Europium fluorophore (620 nm Em). In the absence of enzyme activity, 620 nm fluorescence is low in the assay and increased linearly over 3 hours in the presence of uninhibited BACE1 enzyme Inhibition of BACE1 cleavage of the QSY7-APP^swe-Eu substrate by inhibitors is manifested as a suppression of 620 nm fluorescence.
Reactions are initiated by addition of 10 μl of 600 nM QSY7-APP^swe-Eu substrate (200 nM final) to give a final reaction volume of 30 μl in a 384 well Nunc HTRF plate. The reactions are incubated at 30° C. for 1.5 hours. The 620 nm fluorescence is then read on a Rubystar HTRF plate reader (BMG Labtechnologies) using a 50 millisecond delay followed by a 400 millisecond acquisition time window Inhibitor IC50 values are derived from non-linear regression analysis of concentration response curves.
Sequence of soluble human BACE1 catalytic domain (P56817 75-416): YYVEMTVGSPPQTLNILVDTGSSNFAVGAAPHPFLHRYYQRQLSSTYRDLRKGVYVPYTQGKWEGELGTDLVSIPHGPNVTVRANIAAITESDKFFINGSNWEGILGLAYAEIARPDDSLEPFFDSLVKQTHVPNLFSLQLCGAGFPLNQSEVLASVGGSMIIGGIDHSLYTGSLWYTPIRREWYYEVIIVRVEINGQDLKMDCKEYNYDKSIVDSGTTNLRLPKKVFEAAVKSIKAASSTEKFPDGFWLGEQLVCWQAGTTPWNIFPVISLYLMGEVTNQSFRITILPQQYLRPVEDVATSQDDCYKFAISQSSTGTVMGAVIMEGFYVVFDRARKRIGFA
As usually defined, the Ki is the dissociation constant of the complex between target and ligand, obtained from inhibition or displacement. For `C[C@@]1(c2cc(NC(=O)c3ncc(Cl)cc3Cl)ccc2F)CS(=O)(=O)C2(CCCC2)C(=N)N1` [Example 18], the Ki is 2.7 nM. As for `C[C@@]1(c2cc(NC(=O)c3ncc(Cl)cc3Cl)ccc2F)CS(=O)(=O)C2(CCOCC2)C(=N)N1` [Example 31], the Ki was 4.1 nM. On the same count and under the same terms, as for `C[C@@]1(c2cc(NC(=O)c3ncc(Cl)cc3F)ccc2F)CS(=O)(=O)C2(CCOCC2)C(=N)N1` [Example 35a], the figure is 6.5 nM; as for `C[C@@]1(c2cc(-c3cccc(C#N)c3)ccc2F)CS(=O)(=O)C2(CCCC2)C(=N)N1` [Example 36], 1290 nM; as for `C[C@@]1(c2cc(-c3cncc(Cl)c3)ccc2F)CS(=O)(=O)C2(CCCC2)C(=N)N1` [Example 37], 459 nM. Same read-out and setting: next, `C[C@@]1(c2cc(-c3cncc(C#N)c3)ccc2F)CS(=O)(=O)C2(CCCC2)C(=N)N1` [Example 38]: 939 nM; `COc1cccc2cc(-c3ccc(F)c([C@]4(C)CS(=O)(=O)C5(CCCC5)C(=N)N4)c3)n(C(=O)OC(C)(C)C)c12` [Example 39]: 1330 nM; `C[C@@]1(c2cc(-n3cc(-c4ccccc4)nn3)ccc2F)CS(=O)(=O)C2(CCC2)C(=N)N1` [Example 39a]: 2320 nM. Still for that read-out and setting: as for `C[C@@]1(c2cc(-n3cc(-c4cccnc4)nn3)ccc2F)CS(=O)(=O)C2(CCC2)C(=N)N1` [Example 39b], the figure is 8560 nM; as for `C[C@@]1(c2sc(-c3cncnc3)cc2Cl)CS(=O)(=O)C2(CCCC2)C(=N)N1` [Example 43], 73.1 nM; as for `C[C@@]1(c2sc(-c3cccc(-c4nnco4)c3)cc2Cl)CS(=O)(=O)C2(CCCC2)C(=N)N1` [Example 43a], 37 nM. `C[C@@]1(c2sc(-c3cncnc3)cc2Cl)CS(=O)(=O)C2(CCCCC2)C(=N)N1` [Example 47]: the inhibition constant (Ki) is 545 nM.

In the case of `C[C@@]1(c2sc(-c3cncnc3)cc2Cl)CS(=O)(=O)C2(CCOCC2)C(=N)N1` [Example 51], the Ki was 688 nM. For `COc1cncc(-c2cc(Cl)c([C@]3(C)CS(=O)(=O)C4(CCOCC4)C(=N)N3)s2)c1` [Example 53], the Ki is 555 nM.

Regarding `C[C@@]1(c2sc(-c3cncc(F)c3)cc2Cl)CS(=O)(=O)C2(CCOCC2)C(=N)N1` [Example 55], the Ki was 260 nM. The same measure, in the same setting: next, `C[C@@]1(c2sc(-c3cccc(N4CCCC4)c3)cc2Cl)CS(=O)(=O)C2(CCOCC2)C(=N)N1` [Example 56]: 5740 nM.

In the case of `C[C@@]1(c2sc(-c3cccc(-c4nnco4)c3)cc2Cl)CS(=O)(=O)C2(CCOCC2)C(=N)N1` [Example 57a], the Ki is 34.9 nM. On the same count and under the same terms, as for `C[C@@]1(c2sc(-c3cncnc3)cc2Cl)CS(=O)(=O)C2(CCC2)C(=N)N1` [Example 60], the figure is 374 nM; as for `C[C@@]1(c2sc(-c3cncc(N4CCOCC4)c3)cc2Cl)CS(=O)(=O)[C@]2(CCOC2)C(=N)N1` [Example 62i], 1660 nM. Turning to `CC(C)(O)c1cncc(-c2cc(Cl)c([C@]3(C)CS(=O)(=O)[C@]4(CCOC4)C(=N)N3)s2)c1` [Example 62m], the Ki was 2420 nM. Still for that read-out and setting: next, `CCc1cncc(-c2cc(Cl)c([C@]3(C)CS(=O)(=O)[C@@]4(CCOC4)C(=N)N3)s2)c1` [Example 63i]: 1780 nM; `C[C@@]1(c2sc(-c3cncc(N4CCOCC4)c3)cc2Cl)CS(=O)(=O)[C@@]2(CCOC2)C(=N)N1` [Example 63j]: 3690 nM. For the compound `C[C@@]1(c2sc(-c3ccnc(-c4ccccc4)c3)cc2Cl)CS(=O)(=O)[C@@]2(CCOC2)C(=N)N1` [Example 63k], the Ki is 849 nM. The same measure, in the same setting: as for `C[C@@]1(c2sc(-c3ccnc(-c4ccoc4)c3)cc2Cl)CS(=O)(=O)[C@@]2(CCOC2)C(=N)N1` [Example 63l], the figure is 674 nM; as for `C[C@@]1(c2sc(-c3ccnc(-c4cccs4)c3)cc2Cl)CS(=O)(=O)[C@@]2(CCOC2)C(=N)N1` [Example 63m], 986 nM; as for `C[C@@]1(c2sc(C#CCCNS(C)(=O)=O)cc2Cl)CS(=O)(=O)C2(CCC2)C(=N)N1` [Example 77c], 105 nM. Same read-out and setting: next, `C[C@@]1(c2sc(C#CCN3CCOCC3)cc2Cl)CS(=O)(=O)C2(CCC2)C(=N)N1` [Example 77d]: 2360 nM. On the same count and under the same terms, as for `C[C@@]1(c2sc(C(=O)NCc3cnoc3)cc2Cl)CS(=O)(=O)C2(CCCCC2)C(=N)N1` [Example 80], the figure is 249 nM; as for `C[C@@]1(c2sc(C(=O)NCc3cnsn3)cc2Cl)CS(=O)(=O)C2(CCCCC2)C(=N)N1` [Example 80a], 144 nM.

As for `C[C@@]1(c2sc(C(=O)NCc3cnn4ccccc34)cc2Cl)CS(=O)(=O)C2(CCCCC2)C(=N)N1` [Example 80b], the inhibitory constant (Ki) is 41 nM. As to `C[C@@]1(c2sc(C(=O)NCc3ccncn3)cc2Cl)CS(=O)(=O)C2(CCCCC2)C(=N)N1` [Example 80c], the Ki was 4150 nM. Regarding `C[C@@]1(c2sc(C(=O)NCc3cccc(F)c3)cc2Cl)CS(=O)(=O)C2(CCCCC2)C(=N)N1` [Example 80d], the Ki was 5120 nM. On the same count and under the same terms, next, `C[C@@]1(c2sc(C(=O)NCc3ccc(F)cc3)cc2Cl)CS(=O)(=O)C2(CCCCC2)C(=N)N1` [Example 80e]: 588 nM; `C[C@@]1(c2sc(C(=O)NCc3ccc(C#N)cc3)cc2Cl)CS(=O)(=O)C2(CCCCC2)C(=N)N1` [Example 80f]: 851 nM. The same measure, in the same setting: next, `Cc1cncc(NC(=O)c2cc(Cl)c([C@]3(C)CS(=O)(=O)C4(CCCCC4)C(=N)N3)s2)c1` [Example 80g]: 2160 nM. Same read-out and setting: next, `Cc1cc2cccc(NC(=O)c3cc(Cl)c([C@]4(C)CS(=O)(=O)C5(CCCCC5)C(=N)N4)s3)c2o1` [Example 80i]: 6050 nM. On to `Cn1ccc(NC(=O)c2cc(Cl)c([C@]3(C)CS(=O)(=O)C4(CCCCC4)C(=N)N3)s2)n1` [Example 80j], for which the Ki is 2010 nM.

Take `C[C@@]1(c2sc(C(=O)NCc3ccsn3)cc2Cl)CS(=O)(=O)C2(CCCCC2)C(=N)N1` [Example 80k]: the inhibition constant (Ki) was 121 nM. The same measure, in the same setting: as for `COc1cccc(NC(=O)c2cc(Cl)c([C@]3(C)CS(=O)(=O)C4(CCCCC4)C(=N)N3)s2)n1` [Example 80l], the figure is 207 nM; as for `CCc1cccc(NC(=O)c2cc(Cl)c([C@]3(C)CS(=O)(=O)C4(CCCCC4)C(=N)N3)s2)n1` [Example 80m], 717 nM; as for `C[C@@]1(c2cc(NC(=O)C3CC3)ccc2F)CS(=O)(=O)[C@]2(CCOC2)C(=N)N1` [Example 81], 5170 nM. Same read-out and setting: next, `CCOCC(=O)Nc1ccc(F)c([C@]2(C)CS(=O)(=O)[C@]3(CCOC3)C(=N)N2)c1` [Example 81a]: 4150 nM; `C[C@@]1(c2cc(NC(=O)c3ccc(OC(F)(F)F)cn3)ccc2F)CS(=O)(=O)[C@]2(CCOC2)C(=N)N1` [Example 81aa]: 304 nM. Still for that read-out and setting: as for `C[C@@]1(c2cc(NC(=O)c3ncccc3C(F)(F)F)ccc2F)CS(=O)(=O)[C@]2(CCOC2)C(=N)N1` [Example 81ab], the figure is 146 nM. With `CC(F)(F)C(=O)Nc1ccc(F)c([C@]2(C)CS(=O)(=O)[C@]3(CCOC3)C(=N)N2)c1` [Example 81ad], the inhibition constant (Ki) was 313 nM. Same read-out and setting: next, `COc1ccc(C(=O)Nc2ccc(F)c([C@]3(C)CS(=O)(=O)[C@]4(CCOC4)C(=N)N3)c2)nn1` [Example 81ae]: 904 nM; `Cc1cc(C(=O)Nc2ccc(F)c([C@]3(C)CS(=O)(=O)[C@]4(CCOC4)C(=N)N3)c2)no1` [Example 81af]: 1330 nM; `C[C@@]1(c2cc(NC(=O)c3ncc(Cl)cc3C#N)ccc2F)CS(=O)(=O)[C@]2(CCOC2)C(=N)N1` [Example 81ag]: 5.7 nM. With `C[C@@]1(c2cc(NC(=O)c3ccno3)ccc2F)CS(=O)(=O)[C@]2(CCOC2)C(=N)N1` [Example 81b], the inhibition constant (Ki) is 300 nM. On the same count and under the same terms, next, `C[C@@]1(c2cc(NC(=O)c3cocn3)ccc2F)CS(=O)(=O)[C@]2(CCOC2)C(=N)N1` [Example 81c]: 180 nM; `C[C@@]1(c2cc(NC(=O)C3CCO3)ccc2F)CS(=O)(=O)[C@]2(CCOC2)C(=N)N1` (stereo partly drawn) [Example 81d]: 488 nM. Turning to `CC1(C(=O)Nc2ccc(F)c([C@]3(C)CS(=O)(=O)[C@]4(CCOC4)C(=N)N3)c2)CC1` [Example 81e], the Ki was 998 nM.

On to `C[C@@]1(c2cc(NC(=O)C3CCC3)ccc2F)CS(=O)(=O)[C@]2(CCOC2)C(=N)N1` [Example 81f], for which the inhibition constant Ki was 2080 nM. With `C[C@@]1(c2cc(NC(=O)CC3CC3)ccc2F)CS(=O)(=O)[C@]2(CCOC2)C(=N)N1` [Example 81g], the Ki was 2960 nM. As for `Cc1cnc(C(=O)Nc2ccc(F)c([C@]3(C)CS(=O)(=O)[C@]4(CCOC4)C(=N)N3)c2)cn1` [Example 81h], the Ki was 108 nM. Still for that read-out and setting: as for `C[C@@]1(c2cc(NC(=O)C3(C#N)CC3)ccc2F)CS(=O)(=O)[C@]2(CCOC2)C(=N)N1` [Example 81i], the figure is 741 nM; as for `C[C@@]1(c2cc(NC(=O)[C@H]3CCCO3)ccc2F)CS(=O)(=O)[C@]2(CCOC2)C(=N)N1` [Example 81j], 1400 nM; as for `C[C@@]1(c2cc(NC(=O)c3ncc(F)cc3F)ccc2F)CS(=O)(=O)[C@]2(CCOC2)C(=N)N1` [Example 81k], 26 nM.

The test is the same for the next values; noted with them: read-out: BACE1 % Inh. at 10 μM.
For the compound `Cc1ncc(NC(=O)c2cc(Cl)c([C@]3(C)CS(=O)(=O)C4(CCCCC4)C(=N)N3)s2)cn1` [Example 80h], the inhibition at 10 µM was 32%. For `CC(C)C(F)(F)c1ccc(C(=O)Nc2ccc(F)c([C@]3(C)CS(=O)(=O)[C@]4(CCOC4)C(=N)N3)c2)nc1` [Example 81ac], the inhibition at 10 µM was determined as 35%.

The values above are taken from patent publication US9181236B2, “2-spiro-substituted iminothiazines and their mono-and dioxides as bace inhibitors, compositions and their use” (Merck Sharp & Dohme Corp., priority 2011, dated 2015).
